Key:
LB647-SCLC = test: cells; type: functional, cell-based; details: Homo sapiens;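 further: cell growth inhibition, read out by a viability assay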
Description: SANGER: Inhibition of human LB647-SCLC cell growth in a cell viability assay.

Kasumi 1 = test: cells; type: functional, cell-based; details: Homo sapiens;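 further: growth inhibition of human Kasumi-1 cells, read out by a cell viability assay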
Description: SANGER: Inhibition of human KASUMI-1 cell growth in a cell viability assay.

SKM-1 = test: SANGER: Inhibition of human SKM-1 cell growth in a cell viability assay.; type: functional, cell-based
UACC-812 = test: cells; type: functional, cell-based; details: Homo sapiens
Description: SANGER: Inhibition of human UACC-812 cell growth in a cell viability assay.

YT = test: cells; type: functional, cell-based; details: Homo sapiens
Description: SANGER: Inhibition of human YT cell growth in a cell viability assay.

IM-9 = test: SANGER: Inhibition of human IM-9 cell growth in a cell viability assay.; type: functional, cell-based
SIMA = test: cells; type: functional, cell-based, Homo sapiens; details: Homo sapiens, SIMA;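 further: growth inhibition of SIMA cells, measured with a cell viability readout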
Description: SANGER: Inhibition of human SIMA cell growth in a cell viability assay.

IST-SL2 = test: cells; type: functional, cell-based; details: Homo sapiens;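 further: growth inhibition of human IST-SL2 cells, read out by a cell viability assay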
Description: SANGER: Inhibition of human IST-SL2 cell growth in a cell viability assay.

EW-12 = test: SANGER: Inhibition of human EW-12 cell growth in a cell viability assay.; type: functional, cell-based
NCI-H187 = test: cells; type: functional, cell-based; details: Homo sapiens;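 further: growth inhibition of NCI-H187 cells, read out as cell viability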
Description: SANGER: Inhibition of human NCI-H187 cell growth in a cell viability assay.

ECC4 = test: cells; type: functional, cell-based; details: Homo sapiens;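 further: growth inhibition of ECC4 cells, read out with a cell viability assay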
Description: SANGER: Inhibition of human ECC4 cell growth in a cell viability assay.

IMR-5 = test: cells; type: functional, cell-based; details: Homo sapiens;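 further: growth inhibition of human IMR-5 cells, read out with a cell viability assay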
Description: SANGER: Inhibition of human IMR-5 cell growth in a cell viability assay.

CHP-126 = test: cells; type: functional, cell-based; details: Homo sapiens
Description: SANGER: Inhibition of human CHP-126 cell growth in a cell viability assay.

TE-15 = test: cells; type: functional, cell-based; details: Homo sapiens;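 further: cell viability readout of growth inhibition in TE-15 cells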
Description: SANGER: Inhibition of human TE-15 cell growth in a cell viability assay.

NCI-H2196 = test: cells; type: functional, cell-based; details: Homo sapiens;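 further: cell viability assay used as the readout of growth inhibition in NCI-H2196 cells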
Description: SANGER: Inhibition of human NCI-H2196 cell growth in a cell viability assay.

NCI-H128 = test: SANGER: Inhibition of human NCI-H128 cell growth in a cell viability assay.; type: functional, cell-based
EVSA-T = test: cells; type: functional, cell-based, Homo sapiens; details: Homo sapiens, EVSA-T;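 further: growth inhibition of EVSA-T cells, read out with a cell viability assay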
Description: SANGER: Inhibition of human EVSA-T cell growth in a cell viability assay.

SNU-C1 = test: cells; type: functional, cell-based; details: Homo sapiens;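 further: growth inhibition of SNU-C1 human cells, read out by a cell viability assay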
Description: SANGER: Inhibition of human SNU-C1 cell growth in a cell viability assay.

OPM-2 = test: cells; type: functional, cell-based; details: Homo sapiens;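 further: growth of OPM-2 cells measured with a viability assay, IC50 for suppression of proliferation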
Description: SANGER: Inhibition of human OPM-2 cell growth in a cell viability assay.

CAL-148 = test: cells; type: functional, cell-based; details: Homo sapiens
Description: SANGER: Inhibition of human CAL-148 cell growth in a cell viability assay.

MRK-nu-1 = test: cells; type: functional, cell-based; details: Homo sapiens;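 further: cell viability assay measuring growth suppression of human MRK-nu-1 cells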
Description: SANGER: Inhibition of human MRK-nu-1 cell growth in a cell viability assay.

NCI-H2227 = test: cells; type: functional, cell-based; details: Homo sapiens;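 further: growth inhibition of the human cell line, read out with a cell viability assay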
Description: SANGER: Inhibition of human NCI-H2227 cell growth in a cell viability assay.

NCI-H716 = test: cells; type: functional, cell-based; details: Homo sapiens;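 further: growth inhibition of human NCI-H716 cells, measured by a cell viability assay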
Description: SANGER: Inhibition of human NCI-H716 cell growth in a cell viability assay.

NCI-H1963 = test: cells; type: functional, cell-based; details: Homo sapiens
Description: SANGER: Inhibition of human NCI-H1963 cell growth in a cell viability assay.

NB1 = test: cells; type: functional, cell-based; details: Homo sapiens;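 further: reduction of NB1 cell proliferation, read out with a viability assay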
Description: SANGER: Inhibition of human NB1 cell growth in a cell viability assay.

PF-382 = test: cells; type: functional, cell-based; details: Homo sapiens
Description: SANGER: Inhibition of human PF-382 cell growth in a cell viability assay.

NCI-H345 = test: cells; type: functional, cell-based; details: Homo sapiens;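 further: growth inhibition of NCI-H345 cells measured with a cell viability assay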
Description: SANGER: Inhibition of human NCI-H345 cell growth in a cell viability assay.

L-540 = test: cells; type: functional, cell-based; details: Homo sapiens;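 further: growth inhibition of the human L-540 cell line, read out with a viability assay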
Description: SANGER: Inhibition of human L-540 cell growth in a cell viability assay.

ECC12 = test: cells; type: functional, cell-based; details: Homo sapiens
Description: SANGER: Inhibition of human ECC12 cell growth in a cell viability assay.

RL95-2 = test: cells; type: functional, cell-based; details: Homo sapiens;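 further: RL95-2 growth inhibition determined through a cell viability readout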
Description: SANGER: Inhibition of human RL95-2 cell growth in a cell viability assay.

BC1 cell line = test: SANGER: Inhibition of human BC-1 cell growth in a cell viability assay.; type: functional, cell-based
CA46 = test: cells; type: functional, cell-based; details: Homo sapiens;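 further: growth inhibition of human CA46 cells, read out by a cell viability assay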
Description: SANGER: Inhibition of human CA46 cell growth in a cell viability assay.

BL-41 = test: cells; type: functional, cell-based; details: Homo sapiens;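 further: growth inhibition of human BL-41 cells, read out with a cell viability assay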
Description: SANGER: Inhibition of human BL-41 cell growth in a cell viability assay.

NCI-H322M = test: cells; type: functional, cell-based; details: Homo sapiens;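 further: cell viability assay measuring inhibition of growth of human NCI-H322M cells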
Description: SANGER: Inhibition of human NCI-H322M cell growth in a cell viability assay.

CFPAC-1 = test: cells; type: functional, cell-based; details: Homo sapiens;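 further: cell viability readout used to gauge suppression of CFPAC-1 cell proliferation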
Description: SANGER: Inhibition of human CFPAC-1 cell growth in a cell viability assay.

OC-314 = test: cells; type: functional, cell-based; details: Homo sapiens
Description: SANGER: Inhibition of human OC-314 cell growth in a cell viability assay.

LU-135 = test: cells; type: functional, cell-based; details: Homo sapiens
Description: SANGER: Inhibition of human LU-135 cell growth in a cell viability assay.

HCT-15 = test: cells; type: functional, cell-based, Homo sapiens; details: Homo sapiens, HCT-15;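 further: cell viability readout, IC50 reflecting suppression of HCT-15 cell growth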
Description: SANGER: Inhibition of human HCT-15 cell growth in a cell viability assay.

YH-13 = test: cells; type: functional, cell-based; details: Homo sapiens;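 further: cell viability readout of growth suppression in the human YH-13 cell line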
Description: SANGER: Inhibition of human YH-13 cell growth in a cell viability assay.

NCI-H460 = test: cells; type: functional, cell-based, Homo sapiens; details: Homo sapiens, NCI-H460;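 further: cell viability assay scoring growth inhibition of human NCI-H460 cells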
Description: SANGER: Inhibition of human NCI-H460 cell growth in a cell viability assay.

RH-18 = test: cells; type: functional, cell-based; details: Homo sapiens, Rh18;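 further: growth inhibition of human RH-18 cells, read out with a cell viability assay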
Description: SANGER: Inhibition of human RH-18 cell growth in a cell viability assay.

C=C1C(=O)O[C@@H]2C3O[C@]3(C)CC/C=C(\C)CC[C@@H]12 (some centres undefined)
IC50 (LB647-SCLC): > 5 µM
IC50 (Kasumi 1): > 5000 nM
IC50 (SKM-1): > 5 µM
IC50 (UACC-812): > 5 µM
IC50 (YT): > 5 µM
IC50 (IM-9): > 5 µM
IC50 (SIMA): > 5 µM
IC50 (IST-SL2): > 5 µM
IC50 (EW-12): > 5 µM
IC50 (NCI-H187): > 5 µM
IC50 (ECC4): > 5 µM
IC50 (IMR-5): > 5 µM
IC50 (CHP-126): > 5 µM
IC50 (TE-15): > 5 µM
IC50 (NCI-H2196): 645 nM
IC50 (NCI-H128): > 5 µM
IC50 (EVSA-T): > 5 µM
IC50 (SNU-C1): > 5 µM
IC50 (OPM-2): > 5 µM
IC50 (CAL-148): > 5 µM
IC50 (MRK-nu-1): 2010 nM
IC50 (NCI-H2227): > 5 µM
IC50 (NCI-H716): > 5 µM
IC50 (NCI-H1963): > 5 µM
IC50 (NB1): > 5 µM
IC50 (PF-382): > 5 µM
IC50 (NCI-H345): > 5 µM
IC50 (L-540): > 5 µM
IC50 (ECC12): > 5 µM
IC50 (RL95-2): > 5 µM
IC50 (BC1 cell line): > 5 µM
IC50 (CA46): > 5 µM
IC50 (BL-41): > 5 µM
IC50 (NCI-H322M): > 5 µM

CN(C)C/C=C/C(=O)Nc1cc2c(Nc3ccc(F)c(Cl)c3)ncnc2cc1O[C@H]1CCOC1 [AFATINIB]
IC50 (Kasumi 1): 9.11 nM
IC50 (CFPAC-1): > 500 nM
IC50 (OC-314): > 500 nM
IC50 (LU-135): > 500 nM
IC50 (HCT-15): > 500 nM
IC50 (YH-13): > 500 nM
IC50 (NCI-H460): > 500 nM
IC50 (RH-18): > 500 nM

O=C(NOCC1CC1)c1ccc(F)c(F)c1Nc1ccc(I)cc1Cl [CI-1040]
IC50 (Kasumi 1): 399 nM
IC50 (CFPAC-1): > 10000 nM
IC50 (OC-314): > 10000 nM
IC50 (LU-135): 7560 nM
IC50 (HCT-15): > 10000 nM
IC50 (YH-13): > 10000 nM
IC50 (NCI-H460): > 10000 nM
IC50 (RH-18): > 10000 nM

Nc1ccn([C@@H]2O[C@H](CO)[C@@H](O)[C@@H]2O)c(=O)n1 [CYTARABINE]
IC50 (Kasumi 1): > 2000 nM
IC50 (CFPAC-1): 1060 nM
IC50 (OC-314): 399 nM
IC50 (LU-135): > 2000 nM
IC50 (HCT-15): > 2000 nM
IC50 (YH-13): 328 nM
IC50 (NCI-H460): > 2000 nM
IC50 (RH-18): > 2000 nM

CC(=O)O[C@@]12CO[C@@H]1C[C@H](O)[C@@]1(C)C(=O)[C@H](O)C3=C(C)[C@@H](OC(=O)[C@H](O)[C@@H](NC(=O)OC(C)(C)C)c4ccccc4)C[C@@](O)([C@@H](OC(=O)c4ccccc4)[C@H]21)C3(C)C [DOCETAXEL]
IC50 (Kasumi 1): 5.11 nM
IC50 (CFPAC-1): > 10 nM
IC50 (OC-314): 2.56 nM
IC50 (LU-135): > 10 nM
IC50 (YH-13): 0.791 nM
IC50 (RH-18): > 10 nM
